# Structures can show the parent of a compound that is named as a salt.
# Legend:
# TGFBR1 (ALK5) = target: T1, TGFBR1 (ALK5) (Homo sapiens, UniProt P36897); assay: LanthaScreen Eu Kinase Binding Assay TGFBR1 (ALK5) (ThermoFisher SelectScreen); settings: ALK5 5 nM, Tracer #178 5 nM, Eu-anti-GST antibody 2 nM, 1 hour at room temperature, 1% DMSO; read-out: TβRI (ALK5) Binding IC50
# T1 sequence (P36897 34-503): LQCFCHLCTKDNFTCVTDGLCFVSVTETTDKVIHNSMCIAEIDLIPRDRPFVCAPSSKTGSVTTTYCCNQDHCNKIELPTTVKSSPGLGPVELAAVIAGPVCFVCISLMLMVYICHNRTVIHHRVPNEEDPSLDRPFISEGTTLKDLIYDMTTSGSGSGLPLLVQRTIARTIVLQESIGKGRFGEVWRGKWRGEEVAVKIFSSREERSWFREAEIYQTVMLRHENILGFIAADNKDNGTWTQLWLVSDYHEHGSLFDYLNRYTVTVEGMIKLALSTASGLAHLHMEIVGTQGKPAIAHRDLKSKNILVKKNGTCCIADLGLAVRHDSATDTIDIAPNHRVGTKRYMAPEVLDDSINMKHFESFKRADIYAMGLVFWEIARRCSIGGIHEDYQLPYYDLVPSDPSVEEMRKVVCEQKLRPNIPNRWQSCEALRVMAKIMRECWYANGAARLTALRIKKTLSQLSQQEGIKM
# Description: (§1) Table 2, below, describes the results of assays carried out on some compounds provided by the present disclosure. Exemplified compounds are confirmed to inhibit ALK5 activity in enzyme and cellular assays in the following assay systems conducted by ThermoFisher in Madison, WI according to their commercially available protocols.
# ThermoFisher SelectScreen™ Biochemical Kinase Profiling Service, LanthaScreen™Eu Kinase Binding Assay TGFBR1 (ALK5)
# Exemplified compounds are screened in 1% DMSO (final concentration) by 3-fold serial dilutions from 10,000 nM to 0.316 nM or at single concentrations of 10,000, 1000 and 100 nM according to the following protocol. To low volume, white 384-well plates (Greiner Cat#784207) add 160 nL 100x compound in 100% DMSO, 3.84 uL kinase buffer (50 mM HEPES, pH 7.5, 0.01% BRIJ-35, 10 mM MgCl2, 1 mM EGTA), 8 uL 2x kinase/antibody mixture in kinase buffer (final ALK5 concentration of 5 nM; final Eu-anti-GST antibody concentration of 2 nM), 4 uL 4x Tracer #178 in kinase buffer (final concentration of 5 nM). Gently shake the plates for 30 seconds and incubate at room temperature for 1 hour before reading fluorescence on a plate reader. Percent inhibition is determined compared to DMSO only control (maximal ALK5 tracer binding) and sigmoidal dose response curve fit yielded IC50 values as indicated in Table 2.
# [1] = system: TGF-beta 1 stimulated SBE-bla HEK 293T; assay: GeneBLAzer beta-lactamase (bla) reporter, TGF-beta 1 stimulated SBE-bla HEK 293T cell-based assay (ThermoFisher SelectScreen); settings: Homo sapiens; SBE-bla HEK 293T cells; 30 minutes pre-incubation with inhibitor; TGF-beta 1 0.03 nM, 5 hours; inhibitor 10,000nM to 0.316nM; read-out: Cells (SBE_HEK293T) IC50
# Description: as §1
# ThermoFisher SelectScreen™ Cell-based Pathway Profiling Service GeneBLAzer Beta-lactamase (bla) Reporter Technology - TGF-beta 1 stimulated SBE-bla HEK 293T Cell-based Assay
# SBE-bla HEK 293T cells are thawed and re-suspended in Assay Media (OPTI-MEM, 0.5% dialyzed FBS, 0.1 mM NEAA, 1 mM Sodium Pyruvate, 100 U/mL/100 µg/mL Pen/Strep) to a concentration of 625,000 cells/mL. 32 µL of cell suspension (20,000 cells) is added to each well of a 384-well Poly-D-Lysine assay plate. Cells in Assay Media are incubated for 16-24 hours in the plate at 37°C/5% CO2 in a humidified incubator. 4 µL of a 10X serial dilution of ALK5 inhibitors (10x = 100,000-3.16 nM) is added to appropriate wells of the plate and pre-incubated at 37°C/5% CO2 in a humidified incubator with cells for 30 minutes. Final concentration of inhibitor ranged from 10,000nM to 0.316nM. 4 µL of 10X TGF-beta 1 (final concentration of 0.03 nM) is added to wells containing the inhibitors. The plate is incubated for 5 hours at 37°C/5% CO2 in a humidified incubator. 8 µL of 1 µM Substrate Loading Solution is added to each well and the plate is incubated for 2 hours at room temperature before being read on a fluorescence plate reader. Percent inhibition is determined compared to DMSO only control (maximal TGF-beta 1 stimulation) and sigmoidal dose response curve fit yielded IC50 values as indicated in Table 2. TABLE 2: Biological activity assay results
IC50 (TGFBR1 (ALK5)),SMILES,IC50 [1]
244 nM,"O=C(c1ccc(-c2cc(-c3c(-c4ccn(C5CC5)n4)nc4n3CCC4)ccn2)cc1)N1CCOCC1 [Compound 93, (4-(4-(2-(1-Cyclopropyl-1H-pyrazol-3-yl)-6,7-dihydro-5H-pyrrolo[1,2-a]imidazol-3-yl)pyridin-2-yl)phenyl)(morpholino)methanone]",–
107 nM,"O=c1c2cc(-c3c(-c4ccn(C5CC5)n4)nc4n3CCC4)ccc2ncn1CCN1CCOCC1 [Compound 28, 6-{3-(1-Cyclopropyl-1H-pyrazol-3-yl)-1,4-diazabicyclo[3.3.0]octa-2,4-dien-2-yl}-3-(2-morpholinoethyl)-3H-quinazolin-4-one]",–
55 nM,"O=C(NC1CCOCC1)c1ccc(-c2cc(-c3c(-c4ccn(C5CC5)n4)nc4n3CCC4)ccn2)cc1 [Compound 88, 4-(4-(2-(1-Cyclopropyl-1H-pyrazol-3-yl)-6,7-dihydro-5H-pyrrolo[1,2-a]imidazol-3-yl)pyridin-2-yl)-N-(tetrahydro-2H-pyran-4-yl)benzamide]",988 nM
3.1 nM,"Cn1cnc2ccc(-c3c(-c4ccn(C5CC5)n4)nc4occn34)cc2c1=O [Compound 26, 6-{7-(1-Cyclopropyl-1H-pyrazol-3-yl)-4-oxa-1,6-diazabicyclo[3.3.0]octa-2,5,7-trien-8-yl}-3-methyl-3H-quinazolin-4-one]",33.8 nM
2.5 nM,"Cn1cnc2ccc(-c3c(-c4ccn(C5CC5)n4)nc4sccn34)cc2c1=O [Compound 89, 6-{7-(1-Cyclopropyl-1H-pyrazol-3-yl)-4-thia-1,6-diazabicyclo[3.3.0]octa-2,5,7-trien-8-yl}-3-methyl-3H-quinazolin-4-one]",27 nM
2.6 nM,"Oc1ncnc2ccc(-c3c(-c4ccn(C5CC5)n4)nc4n3CCC4)cc12 [Compound 16, 6-{3-(1-Cyclopropyl-1H-pyrazol-3-yl)-1,4-diazabicyclo[3.3.0]octa-2,4-dien-2-yl}-3H-quinazolin-4-one]",117 nM
5.5 nM,"CC(C)n1ccc(-c2nc3n(c2-c2ccc4ncc(C(N)=O)n4c2)CCC3)n1 [Compound 7, 5-{3-(1-Isopropyl-1H-pyrazol-3-yl)-1,4-diazabicyclo[3.3.0]octa-2,4-dien-2-yl}-1,3a-diaza-3-indenecarboxamide]",248 nM
7.2 nM,"Cn1cnc2ccc(-c3c(-c4ccn(C5CC5)n4)nc4n3CCN4)cc2c1=O [Compound 22, 6-{3-(1-Cyclopropyl-1H-pyrazol-3-yl)-1,4,6-triazabicyclo[3.3.0]octa-2,4-dien-2-yl}-3-methyl-3H-quinazolin-4-one]",27.4 nM
27 nM,"Cn1cnc2ccc(-c3c(-c4ccn(C5CCC5)n4)nc4n3CCC4)cc2c1=O [Compound 94, 6-(2-(1-Cyclobutyl-1H-pyrazol-3-yl)-6,7-dihydro-5H-pyrrolo[1,2-a]imidazol-3-yl)-3-methylquinazolin-4(3H)-one]",4080 nM
5.2 nM,"CC(C)n1ccc(-c2nc3occn3c2-c2ccc3nc[nH]c(=O)c3c2)n1 [Compound 23, 6-{7-(1-Isopropyl-1H-pyrazol-3-yl)-4-oxa-1,6-diazabicyclo[3.3.0]octa-2,5,7-trien-8-yl}-3H-quinazolin-4-one]",239 nM
11 nM,"Oc1ncnc2ccc(-c3c(-c4ccn(C5CC5)n4)nc4n3CCC4)cc12 [Compound 92, 6-(2-(1-Cyclopropyl-1H-pyrazol-3-yl)-6,7-dihydro-5H-pyrrolo[1,2-a]imidazol-3-yl)quinazolin-4-ol]",57 nM
22 nM,"CC(C)n1ccc(-c2nc3sccn3c2-c2ccc3ncn(C)c(=O)c3c2)n1 [Compound 91, 6-(6-(1-Isopropyl-1H-pyrazol-3-yl)imidazo [2,1-b]thiazol-5-yl)-3-methylquinazolin-4(3H)-one]",1100 nM
129 nM,"CS(=O)(=O)c1ccc(-c2cc(-c3c(-c4ccn(C5CC5)n4)nc4n3CCC4)ccn2)cc1 [Compound 86, 2-(1-Cyclopropyl-1H-pyrazol-3-yl)-3-(2-(4-(methylsulfonyl)phenyl)pyridin-4-yl)-6,7-dihydro-5H-pyrrolo[1,2-a]imidazole]",1400 nM
2.5 nM,"O=c1[nH]cnc2ccc(-c3c(-c4ccn(C5CC5)n4)nc4sccn34)cc12 [Compound 90, 6-{7-(1-Cyclopropyl-1H-pyrazol-3-yl)-4-thia-1,6-diazabicyclo[3.3.0]octa-2,5,7-trien-8-yl}-3H-quinazolin-4-one]",35.6 nM
52 nM,"O=c1[nH]cnc2ccc(-c3c(-c4ccn(CC(F)F)n4)nc4n3CCC4)cc12 [Compound 49, 6-{3-[1-(2,2-Difluoroethyl)-1H-pyrazol-3-yl]-1,4-diazabicyclo[3.3.0]octa-2,4-dien-2-yl}-3H-quinazolin-4-one]",2400 nM
6.7 nM,"Cn1cnc2ccc(-c3c(-c4ccn(C5CC5)n4)nc4n3CCC4)cc2c1=O [Compound 18, 6-{3-(1-Cyclopropyl-1H-pyrazol-3-yl)-1,4-diazabicyclo[3.3.0]octa-2,4-dien-2-yl}-3-methyl-3H-quinazolin-4-one]",69 nM
8.9 nM,"NC(=O)c1ncnc2ccc(-c3c(-c4ccn(C5CC5)n4)nc4n3CCC4)cc12 [Compound 95, 6-(2-(1-Cyclopropyl-1H-pyrazol-3-yl)-6,7-dihydro-5H-pyrrolo[1,2-a]imidazol-3-yl)quinazoline-4-carboxamide]",151 nM
1.8 nM,"O=c1[nH]cnc2ccc(-c3c(-c4ccn(C5CC5)n4)nc4occn34)cc12 [Compound 24, 6-{7-(1-Cyclopropyl-1H-pyrazol-3-yl)-4-oxa-1,6-diazabicyclo[3.3.0]octa-2,5,7-trien-8-yl}-3H-quinazolin-4-one]",37 nM
1.7 nM,"NC(=O)c1ncnc2ccc(-c3c(-c4ccn(C5CC5)n4)nc4sccn34)cc12 [Compound 96, 6-(6-(1-Cyclopropyl-1H-pyrazol-3-yl)imidazo[2,1-b]thiazol-5-yl)quinazoline-4-carboxamide]",24.9 nM
3.3 nM,"NC(=O)c1cnc2ccc(-c3c(-c4ccn(C5CC5)n4)nc4n3CCC4)cn12 [Compound 8, 5-{3-(1-Cyclopropyl-1H-pyrazol-3-yl)-1,4-diazabicyclo[3.3.0]octa-2,4-dien-2-yl}-1,3a-diaza-3-indenecarboxamide]",84 nM
66 nM,"CC(C)(O)c1cnc2ccc(-c3c(-c4ccn(C5CC5)n4)nc4n3CCC4)cn12 [Compound 75, 2-(6-(2-(1-Cyclopropyl-1H-pyrazol-3-yl)-6,7-dihydro-5H-pyrrolo[1,2-a]imidazol-3-yl)imidazo[1,2-a]pyridin-3-yl)propan-2-ol]",930 nM
90 nM,"Cn1cnc2ccc(-c3c(-c4ccn(CC(F)F)n4)nc4n3CCC4)cc2c1=O [Compound 50, 6-{3-[1-(2,2-Difluoroethyl)-1H-pyrazol-3-yl]-1,4-diazabicyclo[3.3.0]octa-2,4-dien-2-yl}-3-methyl-3H-quinazolin-4-one]",253 nM

SMILES,IC50 (TGFBR1 (ALK5)),IC50 [1]
"CC(C)n1ccc(-c2nc3sccn3c2-c2ccc3nc[nH]c(=O)c3c2)n1 [Compound 97, 6-(6-(1-Isopropyl-1H-pyrazol-3-yl)imidazo[2,1-b]thiazol-5-yl)quinazolin-4(3H)-one hydrochloride]",12.5 nM,528 nM
